Assay results from PubChem BioAssay (NCI).
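Each compound was tested at five concentrations against cells in 96-well plates for 48 hours. GI50 marks 50% less growth. TGI marks complete inhibition of growth.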

What was measured:
Test in all cases: inhibition of tumour cell growth, NCI panel, 48 h
BT-549 breast = test system: BT-549 breast
SW-620 colon = test system: SW-620 colon
UACC-257 melanoma = test system: UACC-257 melanoma
TK-10 renal = test system: TK-10 renal
HT29 colon = test system: HT29 colon
MDA-MB-231 breast = test system: MDA-MB-231 breast
HOP-92 NSCLC = test system: HOP-92 NSCLC
HOP-62 NSCLC = test system: HOP-62 NSCLC
MDA-MB-468 breast = test system: MDA-MB-468 breast
RXF 393 renal = test system: RXF 393 renal
COLO 205 colon = test system: COLO 205 colon
DU-145 prostate = test system: DU-145 prostate
LOX IMVI melanoma = test system: LOX IMVI melanoma
CCRF-CEM leukemia = test system: CCRF-CEM leukemia
MOLT-4 leukemia = test system: MOLT-4 leukemia
SF-268 CNS = test system: SF-268 CNS
SNB-19 CNS = test system: SNB-19 CNS
SN12C renal = test system: SN12C renal
MCF7 breast = test system: MCF7 breast
NCI-H460 lung = test system: NCI-H460 lung
T-47D breast = test system: T-47D breast
SF-539 CNS = test system: SF-539 CNS
HCT-116 colon = test system: HCT-116 colon
RPMI-8226 leukemia = test system: RPMI-8226 leukemia
A498 renal = test system: A498 renal
OVCAR-4 ovarian = test system: OVCAR-4 ovarian
MDA-MB-435 = test system: MDA-MB-435
786-0 renal = test system: 786-0 renal
NCI/ADR-RES ovarian = test system: NCI/ADR-RES ovarian
OVCAR-8 ovarian = test system: OVCAR-8 ovarian
M14 melanoma = test system: M14 melanoma
HL-60(TB) leukemia = test system: HL-60(TB) leukemia
NCI-H522 lung = test system: NCI-H522 lung
UACC-62 melanoma = test system: UACC-62 melanoma
HS 578T breast = test system: HS 578T breast
SK-OV-3 ovarian = test system: SK-OV-3 ovarian
K-562 leukemia = test system: K-562 leukemia
IGROV1 ovarian = test system: IGROV1 ovarian
KM12 colon = test system: KM12 colon
NCI-H226 lung = test system: NCI-H226 lung
OVCAR-5 ovarian = test system: OVCAR-5 ovarian
SNB-75 CNS = test system: SNB-75 CNS
SK-MEL-2 melanoma = test system: SK-MEL-2 melanoma
A549 NSCLC = test system: A549 NSCLC
SR leukemia = test system: SR leukemia
PC-3 prostate = test system: PC-3 prostate
HCC-2998 colon = test system: HCC-2998 colon
ACHN renal = test system: ACHN renal
CAKI-1 renal = test system: CAKI-1 renal
SK-MEL-28 melanoma = test system: SK-MEL-28 melanoma
HCT-15 colon = test system: HCT-15 colon
MALME-3M melanoma = test system: MALME-3M melanoma
EKVX NSCLC = test system: EKVX NSCLC
U251 CNS = test system: U251 CNS
UO-31 renal = test system: UO-31 renal
SF-295 CNS = test system: SF-295 CNS
OVCAR-3 ovarian = test system: OVCAR-3 ovarian
NCI-H23 lung = test system: NCI-H23 lung
SK-MEL-5 melanoma = test system: SK-MEL-5 melanoma

O=Cc1cncc(-c2ccc3ncnc(N4CCc5cc(F)c(Cl)cc54)c3c2)c1
GI50 (BT-549 breast): 1.77 µM | TGI (BT-549 breast): 12.5 µM | GI50 (SW-620 colon): 10.3 µM | TGI (SW-620 colon): 26.1 µM | GI50 (UACC-257 melanoma): 8.62 µM | TGI (UACC-257 melanoma): 25.9 µM | GI50 (TK-10 renal): 1.32 µM | TGI (TK-10 renal): 10.5 µM | GI50 (HT29 colon): 11.1 µM | TGI (HT29 colon): 34.8 µM | GI50 (MDA-MB-231 breast): 4.85 µM | TGI (MDA-MB-231 breast): 25.3 µM | GI50 (HOP-92 NSCLC): 1.86 µM | TGI (HOP-92 NSCLC): 11.9 µM | GI50 (HOP-62 NSCLC): 2.47 µM | TGI (HOP-62 NSCLC): 26 µM | GI50 (MDA-MB-468 breast): 1.22 µM | TGI (MDA-MB-468 breast): 3.21 µM | GI50 (RXF 393 renal): 1.23 µM | TGI (RXF 393 renal): 4.32 µM | GI50 (COLO 205 colon): 15.6 µM | TGI (COLO 205 colon): 32.6 µM | GI50 (DU-145 prostate): 3.93 µM | TGI (DU-145 prostate): > 100 µM | GI50 (LOX IMVI melanoma): 3.68 µM | TGI (LOX IMVI melanoma): 17.4 µM | GI50 (CCRF-CEM leukemia): 3.08 µM | TGI (CCRF-CEM leukemia): 14.9 µM | GI50 (MOLT-4 leukemia): 2.45 µM | TGI (MOLT-4 leukemia): 7.06 µM | GI50 (SF-268 CNS): 5.14 µM | TGI (SF-268 CNS): > 100 µM | GI50 (SNB-19 CNS): 4.73 µM | TGI (SNB-19 CNS): 35 µM | GI50 (SN12C renal): 2.71 µM | TGI (SN12C renal): 21.2 µM | GI50 (MCF7 breast): 1.64 µM | TGI (MCF7 breast): 7.38 µM | GI50 (NCI-H460 lung): 4.49 µM | TGI (NCI-H460 lung): 20.2 µM | GI50 (T-47D breast): 1.31 µM | TGI (T-47D breast): 11.1 µM | GI50 (SF-539 CNS): 3.75 µM | TGI (SF-539 CNS): 18.7 µM | GI50 (HCT-116 colon): 5.41 µM | TGI (HCT-116 colon): 20.4 µM | GI50 (RPMI-8226 leukemia): 3.14 µM | TGI (RPMI-8226 leukemia): 22.6 µM | GI50 (A498 renal): 0.898 µM | TGI (A498 renal): 6.88 µM | GI50 (OVCAR-4 ovarian): 5.18 µM | TGI (OVCAR-4 ovarian): 41.1 µM | GI50 (MDA-MB-435): 6.39 µM | TGI (MDA-MB-435): 25.1 µM | GI50 (786-0 renal): 2.11 µM | TGI (786-0 renal): 16.1 µM | GI50 (NCI/ADR-RES ovarian): 5.31 µM | TGI (NCI/ADR-RES ovarian): 36.6 µM | GI50 (OVCAR-8 ovarian): 4.71 µM | TGI (OVCAR-8 ovarian): 46.3 µM | GI50 (M14 melanoma): 5.51 µM | TGI (M14 melanoma): 20.9 µM | GI50 (HL-60(TB) leukemia): 2.22 µM | TGI (HL-60(TB) leukemia): 22.1 µM | GI50 (NCI-H522 lung): 11 µM | TGI (NCI-H522 lung): 30.6 µM | GI50 (UACC-62 melanoma): 2.02 µM | TGI (UACC-62 melanoma): 12.4 µM | GI50 (HS 578T breast): 1.74 µM | TGI (HS 578T breast): 8.98 µM | GI50 (SK-OV-3 ovarian): 2.66 µM | TGI (SK-OV-3 ovarian): 9.59 µM | GI50 (K-562 leukemia): 7.74 µM | TGI (K-562 leukemia): > 100 µM | GI50 (IGROV1 ovarian): 1.05 µM | TGI (IGROV1 ovarian): 4.78 µM | GI50 (KM12 colon): 15.4 µM | TGI (KM12 colon): 49.3 µM | GI50 (NCI-H226 lung): 5.1 µM | TGI (NCI-H226 lung): 23.9 µM | GI50 (OVCAR-5 ovarian): 4.01 µM | TGI (OVCAR-5 ovarian): 22.1 µM | GI50 (SNB-75 CNS): 1 µM | TGI (SNB-75 CNS): 10 µM | GI50 (SK-MEL-2 melanoma): 12.1 µM | TGI (SK-MEL-2 melanoma): 28.5 µM | GI50 (A549 NSCLC): 2.64 µM | TGI (A549 NSCLC): 17.1 µM | GI50 (SR leukemia): 3.77 µM | TGI (SR leukemia): 23.7 µM | GI50 (PC-3 prostate): 2.84 µM | TGI (PC-3 prostate): 18.2 µM | GI50 (HCC-2998 colon): 9.79 µM | TGI (HCC-2998 colon): 23.1 µM | GI50 (ACHN renal): 1.02 µM | TGI (ACHN renal): 13.5 µM | GI50 (CAKI-1 renal): 1.31 µM | TGI (CAKI-1 renal): 16 µM | GI50 (SK-MEL-28 melanoma): 7.95 µM | TGI (SK-MEL-28 melanoma): 25.2 µM | GI50 (HCT-15 colon): 3.41 µM | TGI (HCT-15 colon): 17.2 µM | GI50 (MALME-3M melanoma): 2.72 µM | TGI (MALME-3M melanoma): 18.6 µM | GI50 (EKVX NSCLC): 1.25 µM | TGI (EKVX NSCLC): 8.09 µM | GI50 (U251 CNS): 11.1 µM | TGI (U251 CNS): 34 µM | GI50 (UO-31 renal): 0.523 µM | TGI (UO-31 renal): 13.8 µM | GI50 (SF-295 CNS): 3.98 µM | TGI (SF-295 CNS): 21.5 µM | GI50 (OVCAR-3 ovarian): 2.26 µM | TGI (OVCAR-3 ovarian): 34.9 µM | GI50 (NCI-H23 lung): 10.2 µM | TGI (NCI-H23 lung): 27.1 µM | GI50 (SK-MEL-5 melanoma): 4.38 µM | TGI (SK-MEL-5 melanoma): 17.6 µM
